In brackets after ≈: the same amount, converted by molar mass.
What was measured:
[1] = system: E. coli LZ3111; assay: Antibacterial activity, MIC, quinolone resistant strain (Table 2); format: cell-based; details: Escherichia coli, LZ3111, read-out: MIC LZ3111
Text: (§1) The antibacterial activity from a microbroth dilution method may be presented as the minimum inhibitory concentration (MIC in μg/mL). The MIC value is the lowest concentration of drug which prevents macroscopically visible growth under test conditions.
Mutations in these regions are known to confer a high level resistance to the quinolone class of antibiotics.

[2] = system: Staphylococcus aureus (S. aureus) 29213; assay: Antibacterial activity, microbroth dilution MIC (Table 1); format: cell-based; details: microbroth dilution, Gram-positive S. aureus 29213, read-out: MIC, 29213
Text: as §1
(§2) Antibacterial activity of test compounds against the super sensitive Gram-negative Escherichia coli (E. coli) BAS849 bacterium, the control Gram-negative E. coli 25922 strain and the Gram-positive Staphylococcus aureus (S. aureus) 29213 bacterium are shown in Table 1.

[3] = system: Escherichia coli (E. coli) BAS849; assay: as above; format: cell-based; details: microbroth dilution, super sensitive Gram-negative E. coli BAS849, read-out: MIC, BAS849
Text: as §1, §2

[4] = system: E. coli 25922; assay: as above; format: cell-based, Escherichia coli; details: Escherichia coli; microbroth dilution; control Gram-negative E. coli 25922 strain; read-out: MIC, 25922
Text: as §1, §2

Compound	MIC [1] [µg/mL]	MIC [2] [µg/mL]	MIC [3] [µg/mL]	MIC [4] [µg/mL]
CCc1cc(C(=O)O)c(=O)[nH]c1-c1ccc2c(c1)cc([C@H]1CCCN1)n2C.Cl [Cpd 67, (R)-5-ethyl-6-(1-methyl-2-(pyrrolidin-2-yl)-1H-indol-5-yl)-2-oxo-1,2-dihydropyridine-3-carboxylic acid hydrochloride]	12.5 to 150	12.5 to 150	< 1	1 to 3.5
CCc1cc(C(=O)O)c(=O)[nH]c1-c1ccc2c(c1)cc([C@H]1CCCN1C)n2C [Cpd 68, (R)-5-ethyl-6-(1-methyl-2-(1-methylpyrrolidin-2-yl)-1H-indol-5-yl)-2-oxo-1,2-dihydropyridine-3-carboxylic acid]	12.5 to 150 (≈ 32.9 to 395 µM)	12.5 to 150 (≈ 32.9 to 395 µM)	< 1	1 to 3.5 (≈ 2.64 to 9.22 µM)
CCc1cc(C(=O)O)c(=O)[nH]c1-c1ccc2c(c1)cc([C@@H]1CCCN1)n2C.Cl [Cpd 69, (S)-5-ethyl-6-(1-methyl-2-(pyrrolidin-2-yl)-1H-indol-5-yl)-2-oxo-1,2-dihydropyridine-3-carboxylic acid hydrochloride]	12.5 to 150	12.5 to 150	< 1	1 to 3.5
CCc1cc(C(=O)O)c(=O)[nH]c1-c1ccc2c(c1)cc(C1CNCCN1)n2C.Cl.Cl (centres unmarked) [Cpd 70, 5-ethyl-6-(1-methyl-2-(piperazin-2-yl)-1H-indol-5-yl)-2-oxo-1,2-dihydropyridine-3-carboxylic acid dihydrochloride]	12.5 to 150	12.5 to 150	3.5 to 12.5	12.5 to 150
CCc1cc(C(=O)O)c(=O)[nH]c1-c1ccc2c(c1)cc(C1CNCCN1C)n2C.Cl.Cl (centres unmarked) [Cpd 71, 5-ethyl-6-(1-methyl-2-(1-methylpiperazin-2-yl)-1H-indol-5-yl)-2-oxo-1,2-dihydropyridine-3-carboxylic acid dihydrochloride]	12.5 to 150	12.5 to 150	3.5 to 12.5	12.5 to 150
CCc1cc(C(=O)O)c(=O)[nH]c1-c1ccc2c(c1)c(C#N)cn2C [Cpd 72, 6-(3-cyano-1-methyl-1H-indol-5-yl)-5-ethyl-2-oxo-1,2-dihydropyridine-3-carboxylic acid]	12.5 to 150 (≈ 38.9 to 467 µM)	12.5 to 150 (≈ 38.9 to 467 µM)	3.5 to 12.5 (≈ 10.9 to 38.9 µM)	12.5 to 150 (≈ 38.9 to 467 µM)
CCc1cc(C(=O)O)c(=O)[nH]c1-c1ccc2c(c1)c(C(N)=O)cn2C [Cpd 73, 6-(3-carbamoyl-1-methyl-1H-indol-5-yl)-5-ethyl-2-oxo-1,2-dihydropyridine-3-carboxylic acid]	12.5 to 150 (≈ 36.8 to 442 µM)	12.5 to 150 (≈ 36.8 to 442 µM)	12.5 to 150 (≈ 36.8 to 442 µM)	12.5 to 150 (≈ 36.8 to 442 µM)
CCc1cc(C(=O)O)c(=O)[nH]c1-c1ccc2c(c1)c(CN)cn2C [Cpd 74, 6-(3-(aminomethyl)-1-methyl-1H-indol-5-yl)-5-ethyl-2-oxo-1,2-dihydropyridine-3-carboxylic acid]	12.5 to 150 (≈ 38.4 to 461 µM)	12.5 to 150 (≈ 38.4 to 461 µM)	12.5 to 150 (≈ 38.4 to 461 µM)	12.5 to 150 (≈ 38.4 to 461 µM)
CCc1cc(C(=O)O)c(=O)[nH]c1-c1ccc2c(c1)c(CN(C)C)cn2C [Cpd 75, 6-(3-((dimethylamino)methyl)-1-methyl-1H-indol-5-yl)-5-ethyl-2-oxo-1,2-dihydropyridine-3-carboxylic acid]	12.5 to 150 (≈ 35.4 to 424 µM)	12.5 to 150 (≈ 35.4 to 424 µM)	12.5 to 150 (≈ 35.4 to 424 µM)	12.5 to 150 (≈ 35.4 to 424 µM)
CCc1cc(C(=O)O)c(=O)[nH]c1-c1ccc2c(c1)c(CN(CC)CC)cn2C [Cpd 76, 6-(3-((diethylamino)methyl)-1-methyl-1H-indol-5-yl)-5-ethyl-2-oxo-1,2-dihydropyridine-3-carboxylic acid]	12.5 to 150 (≈ 32.8 to 393 µM)	12.5 to 150 (≈ 32.8 to 393 µM)	12.5 to 150 (≈ 32.8 to 393 µM)	12.5 to 150 (≈ 32.8 to 393 µM)
CCc1cc(C(=O)O)c(=O)[nH]c1-c1ccc2c(c1)c(CN(Cc1ccccc1)Cc1ccccc1)cn2C [Cpd 77, 6-(3-((dibenzylamino)methyl)-1-methyl-1H-indol-5-yl)-5-ethyl-2-oxo-1,2-dihydropyridine-3-carboxylic acid]	12.5 to 150 (≈ 24.7 to 297 µM)	3.5 to 12.5 (≈ 6.92 to 24.7 µM)	3.5 to 12.5 (≈ 6.92 to 24.7 µM)	12.5 to 150 (≈ 24.7 to 297 µM)
CCc1cc(C(=O)O)c(=O)[nH]c1-c1ccc2c(cc(CN3CCCC3)n2C)n1 [Cpd 84, 5-ethyl-6-(1-methyl-2-(pyrrolidin-1-ylmethyl)-1H-pyrrolo[3,2-b]pyridin-5-yl)-2-oxo-1,2-dihydropyridine-3-carboxylic acid]	12.5 to 150 (≈ 32.9 to 394 µM)	12.5 to 150 (≈ 32.9 to 394 µM)	1 to 3.5 (≈ 2.63 to 9.2 µM)	3.5 to 12.5 (≈ 9.2 to 32.9 µM)
CCc1cc(C(=O)O)c(=O)[nH]c1-c1ccc2c(c1)cc(C1=NCCN1)n2C [Cpd 85, 6-(2-(4,5-dihydro-1H-imidazol-2-yl)-1-methyl-1H-indol-5-yl)-5-ethyl-2-oxo-1,2-dihydropyridine-3-carboxylic acid]	12.5 to 150 (≈ 34.3 to 412 µM)	12.5 to 150 (≈ 34.3 to 412 µM)	1 to 3.5 (≈ 2.74 to 9.6 µM)	12.5 to 150 (≈ 34.3 to 412 µM)
CCc1cc(C(=O)O)c(=O)[nH]c1-c1ccc2c(c1)cc(C1=NCCCN1)n2C [Cpd 86, 5-ethyl-6-(1-methyl-2-(1,4,5,6-tetrahydropyrimidin-2-yl)-1H-indol-5-yl)-2-oxo-1,2-dihydropyridine-3-carboxylic acid]	12.5 to 150 (≈ 33 to 396 µM)	12.5 to 150 (≈ 33 to 396 µM)	12.5 to 150 (≈ 33 to 396 µM)	12.5 to 150 (≈ 33 to 396 µM)
CCc1cc(C(=O)O)c(=O)[nH]c1-c1ccc2c(c1)cc(C(C)(C)N(C)C)n2C [Cpd 87, 6-(2-(2-(dimethylamino)propan-2-yl)-1-methyl-1H-indol-5-yl)-5-ethyl-2-oxo-1,2-dihydropyridine-3-carboxylic acid]	12.5 to 150 (≈ 32.8 to 393 µM)	12.5 to 150 (≈ 32.8 to 393 µM)	< 1	3.5 to 12.5 (≈ 9.17 to 32.8 µM)
CCc1cc(C(=O)O)c(=O)[nH]c1-c1ccc2c(c1)cc(C(C)(C)N1CCCC1)n2C [Cpd 88, 5-ethyl-6-(1-methyl-2-(2-(pyrrolidin-1-yl)propan-2-yl)-1H-indol-5-yl)-2-oxo-1,2-dihydropyridine-3-carboxylic acid]	12.5 to 150 (≈ 30.7 to 368 µM)	12.5 to 150 (≈ 30.7 to 368 µM)	< 1	3.5 to 12.5 (≈ 8.59 to 30.7 µM)
CCc1cc(C(=O)O)c(=O)[nH]c1-c1cc2cc(CN3CCCC3)n(C)c2cc1C [Cpd 89, 6-(1,6-dimethyl-2-(pyrrolidin-1-ylmethyl)-1H-indol-5-yl)-5-ethyl-2-oxo-1,2-dihydropyridine-3-carboxylic acid]	12.5 to 150 (≈ 31.8 to 381 µM)	12.5 to 150 (≈ 31.8 to 381 µM)	12.5 to 150 (≈ 31.8 to 381 µM)	12.5 to 150 (≈ 31.8 to 381 µM)
CCc1cc(C(=O)O)c(=O)[nH]c1-c1cc2cc(CN3CCCCC3)n(C)c2cc1C [Cpd 90, 6-(1,6-dimethyl-2-(piperidin-1-ylmethyl)-1H-indol-5-yl)-5-ethyl-2-oxo-1,2-dihydropyridine-3-carboxylic acid]	12.5 to 150 (≈ 30.7 to 368 µM)	12.5 to 150 (≈ 30.7 to 368 µM)	12.5 to 150 (≈ 30.7 to 368 µM)	12.5 to 150 (≈ 30.7 to 368 µM)
CCc1cc(C(=O)O)c(=O)[nH]c1-c1cc2cc(CN3CCOCC3)n(C)c2cc1Cl [Cpd 91, 6-(6-chloro-1-methyl-2-(morpholinomethyl)-1H-indol-5-yl)-5-ethyl-2-oxo-1,2-dihydropyridine-3-carboxylic acid]	12.5 to 150 (≈ 29.1 to 349 µM)	12.5 to 150 (≈ 29.1 to 349 µM)	12.5 to 150 (≈ 29.1 to 349 µM)	12.5 to 150 (≈ 29.1 to 349 µM)
CCc1cc(C(=O)O)c(=O)[nH]c1-c1cc2cc(CN(CC)CC)n(C)c2cc1Cl [Cpd 92, 6-(6-chloro-2-((diethylamino)methyl)-1-methyl-1H-indol-5-yl)-5-ethyl-2-oxo-1,2-dihydropyridine-3-carboxylic acid]	12.5 to 150 (≈ 30.1 to 361 µM)	12.5 to 150 (≈ 30.1 to 361 µM)	12.5 to 150 (≈ 30.1 to 361 µM)	12.5 to 150 (≈ 30.1 to 361 µM)
CCc1cc(C(=O)O)c(=O)[nH]c1-c1cc2cc(CN(C)C)n(C)c2cc1Cl [Cpd 93, 6-(6-chloro-2-((dimethylamino)methyl)-1-methyl-1H-indol-5-yl)-5-ethyl-2-oxo-1,2-dihydropyridine-3-carboxylic acid]	12.5 to 150 (≈ 32.2 to 387 µM)	12.5 to 150 (≈ 32.2 to 387 µM)	12.5 to 150 (≈ 32.2 to 387 µM)	12.5 to 150 (≈ 32.2 to 387 µM)
CCc1cc(C(=O)O)c(=O)[nH]c1-c1cc2cc(CN3CCOCC3)n(C)c2cc1C [Cpd 94, 6-(1,6-dimethyl-2-(morpholinomethyl)-1H-indol-5-yl)-5-ethyl-2-oxo-1,2-dihydropyridine-3-carboxylic acid]	12.5 to 150 (≈ 30.5 to 366 µM)	12.5 to 150 (≈ 30.5 to 366 µM)	12.5 to 150 (≈ 30.5 to 366 µM)	12.5 to 150 (≈ 30.5 to 366 µM)
CCc1cc(C(=O)O)c(=O)[nH]c1-c1cc2cc(CN(CC)CC)n(C)c2cc1C [Cpd 95, 6-(2-((diethylamino)methyl)-1,6-dimethyl-1H-indol-5-yl)-5-ethyl-2-oxo-1,2-dihydropyridine-3-carboxylic acid]	12.5 to 150 (≈ 31.6 to 379 µM)	12.5 to 150 (≈ 31.6 to 379 µM)	12.5 to 150 (≈ 31.6 to 379 µM)	12.5 to 150 (≈ 31.6 to 379 µM)
CCc1cc(C(=O)O)c(=O)[nH]c1-c1cc2cc(CN(C)C)n(C)c2cc1C [Cpd 96, 6-(2-((dimethylamino)methyl)-1,6-dimethyl-1H-indol-5-yl)-5-ethyl-2-oxo-1,2-dihydropyridine-3-carboxylic acid]	12.5 to 150 (≈ 34 to 408 µM)	12.5 to 150 (≈ 34 to 408 µM)	12.5 to 150 (≈ 34 to 408 µM)	12.5 to 150 (≈ 34 to 408 µM)
CCc1cc(C(=O)O)c(=O)[nH]c1-c1cc(F)c2c(c1)cc(CN1CCCC1)n2C [Cpd 97, 5-ethyl-6-(7-fluoro-1-methyl-2-(pyrrolidin-1-ylmethyl)-1H-indol-5-yl)-2-oxo-1,2-dihydropyridine-3-carboxylic acid]	12.5 to 150 (≈ 31.5 to 377 µM)	12.5 to 150 (≈ 31.5 to 377 µM)	< 1	1 to 3.5 (≈ 2.52 to 8.81 µM)
CCc1cc(C(=O)O)c(=O)[nH]c1-c1cc(F)c2c(c1)cc(CN1CCOCC1)n2C [Cpd 98, 5-ethyl-6-(7-fluoro-1-methyl-2-(morpholinomethyl)-1H-indol-5-yl)-2-oxo-1,2-dihydropyridine-3-carboxylic acid]	12.5 to 150 (≈ 30.2 to 363 µM)	12.5 to 150 (≈ 30.2 to 363 µM)	< 1	3.5 to 12.5 (≈ 8.47 to 30.2 µM)

Reference: patent US9409905B2, “Antibacterial compounds and methods for use” (PTC THERAPEUTICS, INC., priority 2011, dated 2016)
